From paper PMC12037858 (Scientific Reports, 2025)

Target: Fascin (Homo sapiens, UniProt Q16658)
Test: Image-based F-actin bundling assay
Format: biochemical
Conditions: 400 µM compound

Inhibition of fascin-mediated F-actin bundle formation: prevents fiber formation
SMILES: O=C(Nc1ccncc1)c1cn(Cc2ccc(Cl)c(Cl)c2)c(=O)c2cnn(C3CCNCC3)c12 [BDP-13176]
